This test deals with Zm-SHC-1 (squalene-hopene cyclase, SEQ ID NO: 2). In words: Activity determination of the recombinant cyclase from E. coli LU15568 (conversion of homofarnesylic acid into sclareolide, GC). Format: biochemical, Zymomonas mobilis. Particulars: E. coli LU15568 homogenate, pH 5.0, 37° C., 24 h, GC analysis. The method, then: Inoculated from a suitable 2 ml preculture, E. coli LU15568 was grown for 16 h at 37° C. in 20 ml LB-Amp/Spec/Cm ([…]), 0.1 mM IPTG, 0.5 g/l rhamnose in 100 ml Erlenmeyer flasks (with baffles), centrifuged at 5000*g/10 min and stored at 4° C. Protein extract was prepared by suspending the cell pellet in 15 ml disruption buffer (0.2 M Tris/HCl, 0.5 M EDTA, pH 8.0), 375 U benzonase (for example Novagen, 25 U/μL), 40 μL PMSF (100 mM, dissolved in i-PropOH), 0.8 g sucrose and approx. 0.5 mg of lysozyme. The reaction mixture was mixed and incubated on ice for 30 min. Thereafter, the mixture was frozen at −20° C.
After the reaction mixture had defrosted, it was made up to approx. 40 ml with distilled water and again incubated on ice for 30 min. […]
The conversion of homofarnesylic acid (1b) into sclareolide (3) can be determined with the following GC system:
• 0 min: 100° C. • 5° C./min to 200° C. • After 5 min: 30° C./min to 320° C. • thereafter constant • Duration of the method: 30 min Injector temperature: 280° C. Retention times (RT): • Homofarnesylic acid: peak 1 at 11.7 min, peak 2 at 12.1 min; • Sclareolide: approx. 13.5 min A calibration series, with the aid of which the concentration of unknown samples was determined, is established using authentic material (Sigma, catalog No.: 358002).

Each structure is given as a SMILES string.

With `CC(C)=CCC/C(C)=C/CC/C(C)=C/CC(=O)O` [Homofarnesylic acid, (3E,7E)-4,8,12-trimethyltrideca-3,7,11-trienoic acid], the “conversion rate from the E,E isomer” value (20 mM homofarnesylic acid (E,E 74.93%)) was 82.7%. In addition, under “20 mM homofarnesylic acid, sodium citrate buffer”, the “conversion rate in total” value is 74.5%.

The record behind these values is patent US10954538B2, “Enzymatic cyclization of homofarnesylic acid” (BASF SE, priority 2016, dated 2021).
